What was measured:
VchCAβ = VchCAβ (Vibrio cholerae, UniProt Q9KUD6); assay: biochemical
VchCAα = VchCAα (Vibrio cholerae, UniProt Q9KMP6); assay: stopped-flow CO2 hydrase assay; assay type: biochemical
Chain of VchCAα (Q9KMP6 21-239): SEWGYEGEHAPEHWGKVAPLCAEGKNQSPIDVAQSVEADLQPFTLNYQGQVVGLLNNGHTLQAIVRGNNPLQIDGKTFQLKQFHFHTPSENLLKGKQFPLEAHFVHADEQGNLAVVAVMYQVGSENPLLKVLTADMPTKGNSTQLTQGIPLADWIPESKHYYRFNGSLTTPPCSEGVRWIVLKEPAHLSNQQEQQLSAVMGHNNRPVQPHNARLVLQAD

Chain of VchCAβ (Q9KUD6 1-222): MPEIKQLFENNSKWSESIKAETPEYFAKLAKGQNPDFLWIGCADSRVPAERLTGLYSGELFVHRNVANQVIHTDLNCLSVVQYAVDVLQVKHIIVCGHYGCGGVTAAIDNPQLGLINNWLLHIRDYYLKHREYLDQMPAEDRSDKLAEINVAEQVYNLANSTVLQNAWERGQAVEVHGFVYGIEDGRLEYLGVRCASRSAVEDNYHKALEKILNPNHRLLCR

Row | SMILES | Ki (VchCAβ) [µM] | Ki (VchCAα) [µM]
1 | Cc1ccc(NC(=O)NCc2cn(CCCS(N)(=O)=O)nn2)cc1 [compound 6, 6] | 0.82 | 
2 | COc1ccc(OCc2cn(CCCS(N)(=O)=O)nn2)cc1 [compound 3, 3] | 2.96 | 16.5
3 | COc1cccc(NC(=O)NCc2cn(CCCCS(N)(=O)=O)nn2)c1 [compound 22, 22] | 1.97 | 14
4 | NS(=O)(=O)CCCCn1cc(COc2ccccc2)nn1 [compound 14, 14] | 6.91 | 34.4
5 | COc1ccc(OCc2cn(CCCCS(N)(=O)=O)nn2)cc1 [compound 16, 16] | 6.13 | 28.7
6 | COc1cccc(NC(=O)NCc2cn(CCCS(N)(=O)=O)nn2)c1 [compound 9, 9] | 1.72 | 17.5
7 | Cc1ccc(NC(=O)NCc2cn(CCCCS(N)(=O)=O)nn2)cc1 [compound 19, 19] | 2.86 | 18.3
8 | NS(=O)(=O)CCCCn1cc(CNC(=O)Nc2ccc(F)cc2)nn1 [compound 18, 18] | 3.41 | 16.9
9 | NS(=O)(=O)CCCn1cc(CNC(=O)Nc2ccc(C(F)(F)F)cc2)nn1 [compound 7, 7] | 0.67 | 11.2
10 | NS(=O)(=O)CCCn1cc(COc2ccccc2)nn1 [compound 1, 1] | 4.16 | 29.1
11 | NS(=O)(=O)CCCn1cc(CNC(=O)Nc2ccc(F)cc2)nn1 [compound 5, 5] | 0.93 | 13.4
12 | NS(=O)(=O)CCCCn1cc(CNC(=O)Nc2ccc(C(F)(F)F)cc2)nn1 [compound 20, 20] | 3 | 16.8

From publication PMC11650360 (Archiv Der Pharmazie, 2024)
